Results on eleven molecules are retold here after ChEMBL document CHEMBL4622902, “Discovery of triazolo [1,5-a] pyridine derivatives as novel JAK1/2 inhibitors” (Bioorg Med Chem Lett, 2020).

Structures are written as SMILES.

Assay [1] deals with Tyrosine-protein kinase JAK2 (Homo sapiens, UniProt O60674). As to the kind of experiment: Inhibition of JAK2 (unknown origin) in presence of ATP at Km concentration by caliper assay.
In assay [2] the target is T1, Tyrosine-protein kinase JAK3 (Homo sapiens, UniProt P52333).
T1 sequence (P52333 whole entry): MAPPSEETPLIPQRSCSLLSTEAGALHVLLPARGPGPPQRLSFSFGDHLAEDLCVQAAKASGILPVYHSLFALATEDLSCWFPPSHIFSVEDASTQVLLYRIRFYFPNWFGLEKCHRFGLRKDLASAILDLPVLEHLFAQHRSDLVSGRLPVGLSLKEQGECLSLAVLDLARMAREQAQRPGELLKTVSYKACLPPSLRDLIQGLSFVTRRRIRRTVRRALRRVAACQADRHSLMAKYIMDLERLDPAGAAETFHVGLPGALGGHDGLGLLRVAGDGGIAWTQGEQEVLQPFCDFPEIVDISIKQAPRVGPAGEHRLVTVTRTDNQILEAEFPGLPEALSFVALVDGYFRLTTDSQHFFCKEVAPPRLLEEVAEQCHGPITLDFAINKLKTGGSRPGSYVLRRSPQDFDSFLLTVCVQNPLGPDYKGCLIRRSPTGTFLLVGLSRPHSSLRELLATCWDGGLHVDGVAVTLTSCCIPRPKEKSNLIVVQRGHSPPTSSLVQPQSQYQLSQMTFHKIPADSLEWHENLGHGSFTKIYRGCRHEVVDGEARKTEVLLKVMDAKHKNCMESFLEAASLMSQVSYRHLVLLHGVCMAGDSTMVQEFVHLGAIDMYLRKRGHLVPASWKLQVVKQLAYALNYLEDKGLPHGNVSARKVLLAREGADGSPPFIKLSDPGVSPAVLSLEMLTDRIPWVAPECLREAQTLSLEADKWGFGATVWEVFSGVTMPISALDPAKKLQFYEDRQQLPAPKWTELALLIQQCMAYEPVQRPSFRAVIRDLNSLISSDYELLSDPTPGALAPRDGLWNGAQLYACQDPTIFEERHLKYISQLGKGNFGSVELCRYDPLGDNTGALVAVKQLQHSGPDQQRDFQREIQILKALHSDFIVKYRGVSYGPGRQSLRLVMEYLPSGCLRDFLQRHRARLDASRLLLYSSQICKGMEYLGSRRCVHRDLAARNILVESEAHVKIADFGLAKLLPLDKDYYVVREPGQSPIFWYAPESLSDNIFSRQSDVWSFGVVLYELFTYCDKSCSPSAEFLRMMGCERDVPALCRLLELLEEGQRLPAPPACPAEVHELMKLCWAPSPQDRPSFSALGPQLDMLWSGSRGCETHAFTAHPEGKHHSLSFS
The assay can be described thus: Inhibition of JAK3 (unknown origin) in presence of ATP at Km concentration by caliper assay.

For assay [3], the target named is Tyrosine-protein kinase JAK1 (Homo sapiens, UniProt P23458). As to the kind of experiment: Inhibition of JAK1 (unknown origin) in presence of ATP at Km concentration by caliper assay.
Tyrosine-protein kinase JAK1, sequence (P23458 whole entry): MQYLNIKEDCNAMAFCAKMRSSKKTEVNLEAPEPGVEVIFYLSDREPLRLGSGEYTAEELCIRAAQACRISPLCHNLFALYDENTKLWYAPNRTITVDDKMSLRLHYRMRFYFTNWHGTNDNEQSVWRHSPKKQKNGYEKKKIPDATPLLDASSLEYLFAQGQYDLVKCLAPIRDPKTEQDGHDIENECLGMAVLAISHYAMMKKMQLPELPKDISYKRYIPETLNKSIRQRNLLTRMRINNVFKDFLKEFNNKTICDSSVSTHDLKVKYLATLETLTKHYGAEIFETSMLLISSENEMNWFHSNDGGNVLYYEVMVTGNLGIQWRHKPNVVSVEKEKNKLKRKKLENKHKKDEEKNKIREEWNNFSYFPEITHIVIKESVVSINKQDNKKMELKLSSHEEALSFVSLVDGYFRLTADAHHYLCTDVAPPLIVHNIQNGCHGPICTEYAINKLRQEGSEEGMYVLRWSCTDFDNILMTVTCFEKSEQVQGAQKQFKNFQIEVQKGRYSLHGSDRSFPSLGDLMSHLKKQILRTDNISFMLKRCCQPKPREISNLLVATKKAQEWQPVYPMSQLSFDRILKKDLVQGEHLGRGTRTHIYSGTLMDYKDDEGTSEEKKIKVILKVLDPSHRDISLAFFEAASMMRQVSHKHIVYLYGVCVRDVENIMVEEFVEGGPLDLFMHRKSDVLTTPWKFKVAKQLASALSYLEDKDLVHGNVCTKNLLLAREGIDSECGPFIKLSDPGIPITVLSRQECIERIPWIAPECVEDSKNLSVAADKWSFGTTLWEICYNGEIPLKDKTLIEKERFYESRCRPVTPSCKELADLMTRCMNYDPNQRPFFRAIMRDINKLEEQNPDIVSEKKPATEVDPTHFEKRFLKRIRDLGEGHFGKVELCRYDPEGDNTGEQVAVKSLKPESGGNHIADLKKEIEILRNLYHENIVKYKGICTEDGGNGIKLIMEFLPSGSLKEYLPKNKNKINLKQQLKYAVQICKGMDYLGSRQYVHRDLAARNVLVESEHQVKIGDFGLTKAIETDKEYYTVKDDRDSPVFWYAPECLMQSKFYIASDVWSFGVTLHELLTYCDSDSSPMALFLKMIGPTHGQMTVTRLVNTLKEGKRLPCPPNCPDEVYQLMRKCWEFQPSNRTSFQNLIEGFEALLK

Tyrosine-protein kinase JAK2, sequence (O60674 whole entry): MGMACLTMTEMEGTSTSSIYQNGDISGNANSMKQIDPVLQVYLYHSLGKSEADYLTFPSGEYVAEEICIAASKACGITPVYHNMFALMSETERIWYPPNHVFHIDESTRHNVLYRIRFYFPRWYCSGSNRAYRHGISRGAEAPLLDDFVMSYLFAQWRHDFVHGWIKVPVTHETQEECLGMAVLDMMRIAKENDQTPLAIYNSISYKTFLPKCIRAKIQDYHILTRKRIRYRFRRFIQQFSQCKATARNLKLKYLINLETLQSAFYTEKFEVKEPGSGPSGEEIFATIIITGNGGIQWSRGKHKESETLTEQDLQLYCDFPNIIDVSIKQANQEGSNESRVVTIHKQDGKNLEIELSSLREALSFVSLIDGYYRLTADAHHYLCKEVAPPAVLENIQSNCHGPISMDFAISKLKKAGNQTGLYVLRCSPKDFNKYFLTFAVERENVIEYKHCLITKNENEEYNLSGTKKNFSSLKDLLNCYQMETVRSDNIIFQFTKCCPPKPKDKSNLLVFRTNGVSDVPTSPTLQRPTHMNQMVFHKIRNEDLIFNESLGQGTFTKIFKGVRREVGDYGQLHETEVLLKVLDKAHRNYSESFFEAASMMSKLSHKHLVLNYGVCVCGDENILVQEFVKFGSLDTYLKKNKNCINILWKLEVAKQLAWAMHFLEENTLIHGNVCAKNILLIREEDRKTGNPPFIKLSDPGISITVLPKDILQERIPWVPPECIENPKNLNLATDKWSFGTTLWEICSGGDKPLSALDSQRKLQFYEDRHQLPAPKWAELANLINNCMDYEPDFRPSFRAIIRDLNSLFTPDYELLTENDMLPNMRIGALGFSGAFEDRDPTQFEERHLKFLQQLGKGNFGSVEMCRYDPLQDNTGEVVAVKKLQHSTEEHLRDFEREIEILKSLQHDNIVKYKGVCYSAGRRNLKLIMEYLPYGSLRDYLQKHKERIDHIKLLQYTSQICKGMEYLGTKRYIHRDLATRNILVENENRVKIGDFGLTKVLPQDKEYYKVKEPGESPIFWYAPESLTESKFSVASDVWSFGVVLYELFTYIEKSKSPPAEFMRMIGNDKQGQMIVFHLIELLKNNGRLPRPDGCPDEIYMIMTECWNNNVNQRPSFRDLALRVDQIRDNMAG

As to `N#CCNC(=O)c1ccc(-c2cccc3nc(NC(=O)C4CC4)nn23)cc1`, the IC50 in assay [1] was found to be 299 nM.
Same read-out and setting: in the case of `C=CC(=O)N1CC=C(c2cccc3nc(NC(=O)C4CC4)nn23)CC1` it was 424 nM.
Regarding `N#CCNC(=O)N1CC=C(c2cccc3nc(NC(=O)C4CC4)nn23)CC1`, the IC50 in assay [1] came out at 175 nM.
On to `N#CCC(=O)N1CC=C(c2cccc3nc(NC(=O)C4CC4)nn23)CC1`, for which, in assay [1], the IC50 was 157 nM.
`O=C(Nc1nc2cccc(C3=CCN(C(=O)C4CC4(F)F)CC3)n2n1)C1CC1` (configuration not stated): the IC50 in assay [1] amounted to 192 nM.
The same measure, in the same setting: under `C=C(C#N)C(O)c1ccc(-c2cccc3nc(NC(=O)C4CC4)nn23)cc1` (configuration not stated) stands 55 nM.
As to `O=C(Nc1nc2cccc(C3=CCN(C(=O)C4(C(F)(F)F)CC4)CC3)n2n1)C1CC1`, the IC50 in assay [1] amounted to 317 nM.
For `O=C(Nc1nc2cccc(C3=CCN(C(=O)NCC(F)(F)F)CC3)n2n1)C1CC1`, the IC50 was determined as 347 nM in assay [1], 1740 nM in assay [2] and 234 nM in assay [3].
As to `N#CC1(C(=O)N2CC=C(c3cccc4nc(NC(=O)C5CC5)nn34)CC2)CC1`, the IC50 in assay [1] was determined as 441 nM.
In the case of `O=C(NCC(F)(F)F)c1ccc(-c2cccc3nc(NC(=O)C4CC4)nn23)cc1`, the IC50 in assay [1] was 214 nM; in assay [2], 1020 nM; in assay [3], 230 nM.
For `O=C(Nc1nc2cccc(-c3ccc(C(=O)N4CC(F)(F)C4)cc3)n2n1)C1CC1`, in that order: 139 nM, 941 nM and 124 nM.
